Marks after values point to notes of the source that are not given here.
Key:
[1] = DPPH· free radical scavenging assay; conditions: for IC50: DPPH· scavenging, 0.2 mM DPPH· in DMSO, absorbance 515 nm
Experimental: DPPH^· assay is widely used to observe radical scavenging activity of various compounds and extracts. DPPH^· is stable N radical which is reduced to hydrazine during its reaction with hydrogen donors.
Initially, 0.2 mM DPPH^· solution was prepared using DMSO as the solvent. […] During reduction of DPPH^· solution by antiradical compound, absorption of DPPH^· was measured at 515 nm. The spectrophotometric data was acquired using BMG FLUOstar OPTIMA spectrophotometer (BMG Labtech, Durham, NC, USA) and the IC50 values were calculated.

[2] = Ferric reducing ability of plasma (FRAP) assay; conditions: 10 μM compounds dissolved in DMSO; Trolox equivalence; mean ± SD
Text: The FRAP assay uses antioxidants in a redox-linked colorimetric assay to reduce ferric tripyridyl triazine to ferrous form at low pH [20].
FRAP assay is based on ferric to ferrous ion reduction to test the electron donating capacity of antioxidants. The assay was modified by using the 96-well microplate reader with an injection port system. Briefly, the FRAP working reagent was made using acetate buffer, 2,4,6-Tris (2-pyridyl)-s-triazine solution and ferric chloride in the ratio 10:1:1. […] After 6 min reaction time, absorbance was measured at 593 nm. Trolox standards at different concentrations were used to calculate the antioxidant capacity as mmol Trolox equivalence per L.

[3] = Oxygen radical absorbance capacity (ORAC) assay; conditions: 1 μM compounds dissolved in DMSO; Trolox equivalence; mean ± SD
Experimental: ORAC assay is based on the free radical damage to a fluorescence probe measured by fluorescence intensity over the time. The fluorescein sodium salt was used as fluorescence probe and change in its intensity was estimated as the index of the degree of free radical damage. Assay was performed using method described elsewhere. Briefly, the standards and samples were prepared using 75 mM phosphate buffer (pH 7). As the peroxy radicals are generated from decomposition of 2,2'-azobis(2-amidino-propane) dihydrochloride (AAPH), the signal was quenched from fluorescein. However, in the presence of antioxidant samples the fluorescence signal can be stabilize which depends directly upon the antioxidant’s capacity to neutralize the free radical. Quadratic relation emerging from florescent area under the decaying curve was used to calculate antioxidant capacity as mmol Trolox equivalence per L.

[4] = tested on: angiotensin converting enzyme (ACE); test: Angiotensin converting enzyme (ACE) inhibition assay; type: biochemical; conditions: 10 μM compounds dissolved in DMSO
Experimental: ACE assay is based on ACE inhibitory activity of test samples. The enzyme activity was measured by production of hippuric acid from the substrate hippuryl-L-histidyl-L-leucine (HHL). ACE cleaves the substrate to expose a free N-terminus, which was fluorogenically labeled with o-phthaldialdehyde (OPA). The florescence signal was measured by using excitation of 350 nm and emission of 500 nm. ACE inhibition activity of samples was measured using the following equation: % inhibition = 100 − (Acontrol − Asample)/Acontrol × 100 (1) where A is the absorbance Equation (1).

Tyrosinase = Tyrosinase inhibition assay (L-DOPA substrate); type: biochemical; conditions: 10 μM compounds dissolved in DMSO
Experimental: Tyrosinase inhibition was calculated based on previously described methods using L-DOPA as the substrate. Tyrosinase inhibition depended upon the amount of dopachrome produced in the reaction mixture. Absorption was measured at 490 nm to calculate the amount of dopachrome produced. The assay was performed in 96-well clear polystyrene plates using FLUOstar OPTIMA plate reader. The tyrosinase inhibitory effect of sample was measured using the following the Equation (1).

HIV-1 protease = target: T1, HIV-1 protease (Human immunodeficiency virus type 1 group M subtype B, UniProt P04585); test: HIV-1 protease inhibition assay (fluorescent substrate); type: biochemical; conditions: 10 μM compounds dissolved in DMSO; read-out: % Enzyme Inhibition HIV-I protease
T1 construct: HIV-1 protease enzyme (Sigma Aldrich); purchased Sigma Aldrich
Experimental: HIV-1 protease inhibition was performed by using a previously described method. HIV protease fluorescent substrate and HIV-1 protease enzyme (Sigma Aldrich) were used to determine HIV inhibition capacity of sample. Three primary controls i.e., blank, sample and positive control were used. Reaction mixture of 200 µL comprised of five enzyme units (5U) of HIV-1 protease along with 0.5 pmol of enzyme substrate. After addition of both enzymes and substrates, test compounds were added in different concentrations. Reaction mixture was incubated at 37 °C which leads to generation of fluorescence signal by cleaving Tyr-Pro peptide bond of the substrate. Finally reaction mixture was heated for 5 minutes at 90 °C to stop the reaction. The mixture was centrifuged at 12,000 rpm for 3 min. and supernatant was used to measure the fluorescence signal. The enzyme inhibition was calculated using the Equation (1).

[5] = tested on: human endothelial lung cells; test: Cytotoxicity analysis by LDH release assay; type: cell-based; conditions: 10 µM, 24 hours
Experimental: In the current study authors conducted a toxicology study to confirm safety of compounds and their dosage for potential animal or clinical studies. The study was conducted at 10 µM concentration using human endothelial lung cells. […] Literature reports on cytotoxic behavior of potent natural antioxidants are rare. Research in the field of free radicals mainly deals with screening of novel antioxidants and their mechanism of action.
Human lung cell line (ATCC® PCS-100-022™) was purchased from American Type Culture Collection (Cederlane, Burlington, ON, Canada). Cell lines were maintained and grown in DMEM complete growth media, supplemented with 10% fetal bovine serum (FBS), 100 units/mL penicillin and 100 µg/mL streptomycin (Cederlane) at 37 °C, in a humidified 5% CO2 incubator. Cell growth medium was changed every 48 hours and when cells reached 80% confluence, they were detached from 75 cm^2 tissue culture flask using 0.25% trypsin-EDTA treatment. The detached cells were collected in sterile tube in FBS free media. Collected cells were then counted using the Millipore Scepter 2.0 handheld automated cell counter. Further assay specific analysis was performed as described in section 2.10.
Cytotoxicity assay was performed using Promega Cytotox 96® non-radioactive colorimetric assay (Promega Corporation). The assay measures the lactate dehydrogenase (LDH) release upon cell lysis. The released LDH from cells was measured in an enzymatic assay based on conversion of tetrazolium salt to a red formazan product. Briefly, 5,000 human endothelial lung cells in 100 µL of serum-free culture medium were seeded in 96 well sterile plates. Cells were allowed to adhere to the plates for 24 h at 37 °C in a humidified, 5% CO2 incubator. After 24 h, the serum-free media was replaced by test compounds in 100 µL of serum-free culture medium. […] The test compounds at 10 µM concentration were allowed to interact with cells for 24 hours after which absorbance were recorded at 490 nm using BMG FLUOstar OPTIMA spectrophotometer (BMG Labtech, Durham, NC). […]

| Structure (SMILES) | radical scavenging capacity higher than curcumin (fold) ([1]; DPPH assay, relative to curcumin) | IC50 [1] [µM] | FRAP antioxidant capacity [2] | ORAC antioxidant capacity [3] | % Enzyme Inhibition ACE [4] | % Enzyme Inhibition Tyrosinase (Tyrosinase) | inhibition at 10 µM (HIV-1 protease) [%] | cytotoxicity ranking (LDH release), in words [5] | antiradical capacity lower than other series 3 analogues (fold) ([1]; DPPH assay, relative to other curcumin analogues in series 3) |
| --- | --- | --- | --- | --- | --- | --- | --- | --- | --- |
| O=C1/C(=C(O)/C=C/c2ccc(Cl)cc2)CC/C1=C\c1ccc(Cl)cc1 [Compound 3f] | over 10 fold | 90 | 1.09 ± 0.1 ^gh mmole TE/L | 1.30 ± 0.02 ^b mmole TE/L | 75.12 ^bc % | 61.31 ^e % | 23.3 | lowest cytotoxicity effects |  |
| COc1ccc(/C=C/C(O)=C2\CC/C(=C\c3ccc(OC)cc3)C2=O)cc1 [Compound 3c] |  | 340 | 1.09 ± 0.1 ^gh mmole TE/L | 1.17 ± 0.1 ^b mmole TE/L | 67.42 ^cd % | 58.54 ^g % | 35.9 | highest cytotoxic behavior | approximately 10 fold |

— PMC6270194 (Molecules, 2013)
